Tests used:
[1] = tested on: P388 murine leukemia, B16 melanoma, Lewis lung carcinoma, and several human tumor xenograft models; settings: activity against P388, B16, Lewis lung, human tumor xenografts in mice; cited from earlier work
L1210 murine leukemia = test: in vitro cytotoxicity to L1210 murine leukemia; assay type: cell-based; settings: potency relative to Et 743
Text: In view of the exceptional antitumor properties of the natural ecteinascidins, the present invention has studied the antitumor activities of the semi-synthetic analogs prepared herein.

B16 melanoma = settings: recent experiments, NCI evaluation; cited from earlier work

Row | Structure (SMILES) | efficacy in vivo [1] | IC50 (Et 743)/IC50 (L1210 murine leukemia) | survivors 60 days following infection with B16 melanoma (B16 melanoma)
1 | COc1c(C)cc2c(c1O)[C@H]1N[C@@H](C2)[C@H](O)N2[C@H]1[C@@H]1SC[C@]3(NCCc4c3[nH]c3ccccc43)C(=O)OC[C@H]2c2c3c(c(C)c(OC(C)=O)c21)OCO3 [Et 722] | promising efficacy in vivo |  | 
2 | COc1cc2c(cc1O)CCN[C@]21CSC2c3c(OC(C)=O)c(C)c4c(c3C(COC1=O)N1C2C2NC(Cc3cc(C)c(OC)c(O)c32)[C@@H]1O)OCO4 (stereo partly drawn) [Et 729] | promising efficacy in vivo | 10 | 8 of 10
3 | COc1cc2c(cc1O)CCN[C@]21CSC2c3c(OC(C)=O)c(C)c4c(c3C(COC1=O)N1C2C2c3c(cc(C)c(OC)c3O)CC([C@@H]1O)N2C)OCO4 (stereo partly drawn) [Et 743] | promising efficacy in vivo |  | 
4 | COc1cc2c(cc1O)CCN(C)[C@]21CSC2c3c(OC(C)=O)c(C)c4c(c3C(COC1=O)N1C2C2c3c(cc(C)c(OC)c3O)CC([C@@H]1O)N2C)OCO4 (stereo partly drawn) [Et 757] |  | 50 | 
5 | COC(=O)C(C(=O)OC)[C@H]1C2Cc3cc(C)c(OC)c(O)c3C(C3C4SC[C@]5(NCCc6cc(O)c(OC)cc65)C(=O)OCC(c5c6c(c(C)c(OC(C)=O)c54)OCO6)N31)N2C (stereo partly drawn) [Et 875] |  | 1 | 
6 | COc1cc2c(cc1O)CCNC21CSC2c3c(OC(C)=O)c(C)c4c(c3C(COC1=O)N1C(O)C3Cc5cc(C)c(OC)c(O)c5C(C21)N3Cc1ccc(CN2C3Cc5cc(C)c(OC)c(O)c5C2C2C5SCC6(NCCc7cc(O)c(OC)cc76)C(=O)OCC(c6c7c(c(C)c(OC(C)=O)c65)OCO7)N2C3O)cc1)OCO4 (stereo not drawn) [Et 1560] |  | 0.25 | 
7 | COc1cc2c(cc1O)CCN(C)[C@]21CSC2c3c(OC(C)=O)c(C)c4c(c3C(COC1=O)N1C2C2NC(Cc3cc(C)c(OC)c(O)c32)[C@@H]1O)OCO4 (stereo partly drawn) [Iso-Et 743] |  | 17 | 
